According to US7825270B2, “Inositolphospholipids and analogues: phosphatidylinositol products and processes” (Nutrimed Biotech, priority 2005, dated 2010):

Assays:
HDL-C levels = conditions: administration of PI, humans; cited from earlier work
[1] = tested on: epithelial cell proliferation; conditions: cited from earlier work
[2] = solubility in organic solvents; type: physicochemical; conditions: alcohol, acetone, ethyl acetate or methanol

phosphatidylinositol [PI]
effect on HDL-C levels (HDL-C levels): raises HDL-C levels

D-myo-inositol 4-(hexadecyloxy)-3(S)methoxy-butane-phosphonate
inhibition of epithelial cell proliferation [1]: inhibit epithelial cell proliferation

Soy PI-2,3,4,5,6-penta-O-tetrahydropyranyl ether
solubility in solvents [2]: dissolved easily
